What was measured:
Assay in all cases: relative viability (nuclei count vs DMSO), 5 days (fraction); higher = more cells survive
[1] = compound: O=C(NC1CCNCC1)c1n[nH]cc1NC(=O)c1c(Cl)cccc1Cl [AT-7519] + Cc1nc(Nc2ncc(C(=O)Nc3c(C)cccc3Cl)s2)cc(N2CCN(CCO)CC2)n1 [Dasatinib] (partner 0.075 µM)
Summary of the method: (§1)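 Relative viability is defined as nuclei in treated wells over nuclei in vehicle wells. Duplicate plates were run and medians reported. Lung cancer cell lines in 1536-well plates were dosed by pin tool one day after seeding, with one drug or with a fixed anchor-drug dose plus five library-drug doses (not always all listed) in √10 steps, and nuclei were counted after 5 days.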

[2] = compound: C1=CC2=C(C=C(C(=C2N=C1)O)N=NC3=CC4=C(C=C3)C=C(C=C4)S(=O)(=O)O)S(=O)(=O)O + Nc1ncn([C@H]2C[C@H](O)[C@@H](CO)O2)c(=O)n1 [Decitabine] (partner 2 µM)
Summary of the method: as §1

[3] = compound: O=C(NC1CCNCC1)c1n[nH]cc1NC(=O)c1c(Cl)cccc1Cl [AT-7519] + CCNC(=O)c1noc(-c2cc(C(C)C)c(O)cc2O)c1-c1ccc(CN2CCOCC2)cc1 [Luminespib] (partner 0.01 µM)
Summary of the method: as §1

[4] = compound: C1=CC2=C(C=C(C(=C2N=C1)O)N=NC3=CC4=C(C=C3)C=C(C=C4)S(=O)(=O)O)S(=O)(=O)O + CC(C)C[C@H](NC(=O)[C@H](Cc1ccccc1)NC(=O)c1cnccn1)B(O)O [Bortezomib] (partner 0.002 µM)
Summary of the method: as §1

With NCI-H1975 the relative viability ([1]; first compound 0.01 µM) was 0.341, the relative viability ([1]; first compound 0.03162 µM) was 0.341 and the relative viability ([1]; first compound 0.3162 µM) was 0.384. It also gave a relative viability ([1]; first compound 1 µM) of 0.127, a relative viability ([2]; first compound 0.08 µM) of 0.462 and a relative viability ([2]; first compound 0.253 µM) of 0.393. It also gave a relative viability ([2]; first compound 0.8 µM) of 0.405, a relative viability ([2]; first compound 2.53 µM) of 0.384 and a relative viability ([2]; first compound 8 µM) of 0.408. For the same cell line, the relative viability ([3]; first compound 0.01 µM) was 0.21, the relative viability ([3]; first compound 0.03162 µM) was 0.176 and the relative viability ([3]; first compound 0.3162 µM) was 0.317. It also gave a relative viability ([3]; first compound 1 µM) of 0.126, a relative viability ([4]; first compound 0.08 µM) of 0.389 and a relative viability ([4]; first compound 0.253 µM) of 0.385. The relative viability ([4]; first compound 0.8 µM) was 0.377, the relative viability ([4]; first compound 2.53 µM) was 0.327 and the relative viability ([4]; first compound 8 µM) was 0.42.
NCI-H1993 showed a relative viability ([1]; first compound 0.01 µM) of 0.626, a relative viability ([1]; first compound 0.03162 µM) of 0.516 and a relative viability ([1]; first compound 0.3162 µM) of 0.441. The relative viability ([1]; first compound 1 µM) was 0.312, the relative viability ([2]; first compound 0.08 µM) was 0.573 and the relative viability ([2]; first compound 0.253 µM) was 0.669. For the same cell line, the relative viability ([2]; first compound 0.8 µM) was 0.624, the relative viability ([2]; first compound 2.53 µM) was 0.59 and the relative viability ([2]; first compound 8 µM) was 0.634. The relative viability ([3]; first compound 0.01 µM) was 0.788, the relative viability ([3]; first compound 0.03162 µM) was 0.823 and the relative viability ([3]; first compound 0.3162 µM) was 0.844. For the same cell line, the relative viability ([3]; first compound 1 µM) was 0.388, the relative viability ([4]; first compound 0.08 µM) was 1.08 and the relative viability ([4]; first compound 0.253 µM) was 1.07. It also gave a relative viability ([4]; first compound 0.8 µM) of 1.28, a relative viability ([4]; first compound 2.53 µM) of 1.3 and a relative viability ([4]; first compound 8 µM) of 0.977.
For NCI-H2009, the relative viability ([1]; first compound 0.01 µM) was 0.282, the relative viability ([1]; first compound 0.03162 µM) was 0.279 and the relative viability ([1]; first compound 0.3162 µM) was 0.234. It also gave a relative viability ([1]; first compound 1 µM) of 0.157, a relative viability ([2]; first compound 0.08 µM) of 0.351 and a relative viability ([2]; first compound 0.253 µM) of 0.327. For the same cell line, the relative viability ([2]; first compound 0.8 µM) was 0.358, the relative viability ([2]; first compound 2.53 µM) was 0.373 and the relative viability ([2]; first compound 8 µM) was 0.297. It also gave a relative viability ([3]; first compound 0.01 µM) of 1.03, a relative viability ([3]; first compound 0.03162 µM) of 1.03 and a relative viability ([3]; first compound 0.3162 µM) of 1.02. For the same cell line, the relative viability ([3]; first compound 1 µM) was 0.881, the relative viability ([4]; first compound 0.08 µM) was 0.909 and the relative viability ([4]; first compound 0.253 µM) was 0.921. It also gave a relative viability ([4]; first compound 0.8 µM) of 0.965, a relative viability ([4]; first compound 2.53 µM) of 0.968 and a relative viability ([4]; first compound 8 µM) of 0.916.
With NCI-H2023 the relative viability ([1]; first compound 0.01 µM) was 0.636, the relative viability ([1]; first compound 0.03162 µM) was 0.548 and the relative viability ([1]; first compound 0.3162 µM) was 0.485. For the same cell line, the relative viability ([1]; first compound 1 µM) was 0.231, the relative viability ([2]; first compound 0.08 µM) was 0.24 and the relative viability ([2]; first compound 0.253 µM) was 0.243. For the same cell line, the relative viability ([2]; first compound 0.8 µM) was 0.258, the relative viability ([2]; first compound 2.53 µM) was 0.24 and the relative viability ([2]; first compound 8 µM) was 0.19. It also gave a relative viability ([3]; first compound 0.01 µM) of 0.622, a relative viability ([3]; first compound 0.03162 µM) of 0.748 and a relative viability ([3]; first compound 0.3162 µM) of 0.521. It also gave a relative viability ([3]; first compound 1 µM) of 0.16, a relative viability ([4]; first compound 0.08 µM) of 0.945 and a relative viability ([4]; first compound 0.253 µM) of 0.945. It also gave a relative viability ([4]; first compound 0.8 µM) of 1.01, a relative viability ([4]; first compound 2.53 µM) of 1.15 and a relative viability ([4]; first compound 8 µM) of 0.978.
With NCI-H2085 the relative viability ([1]; first compound 0.01 µM) was 0.219, the relative viability ([1]; first compound 0.03162 µM) was 0.242 and the relative viability ([1]; first compound 0.3162 µM) was 0.256. The relative viability ([1]; first compound 1 µM) was 0.218, the relative viability ([2]; first compound 0.08 µM) was 0.561 and the relative viability ([2]; first compound 0.253 µM) was 0.53. The relative viability ([2]; first compound 0.8 µM) was 0.496, the relative viability ([2]; first compound 2.53 µM) was 0.631 and the relative viability ([2]; first compound 8 µM) was 0.546. The relative viability ([3]; first compound 0.01 µM) was 0.528, the relative viability ([3]; first compound 0.03162 µM) was 0.405 and the relative viability ([3]; first compound 0.3162 µM) was 0.489. For the same cell line, the relative viability ([3]; first compound 1 µM) was 0.515, the relative viability ([4]; first compound 0.08 µM) was 1.23 and the relative viability ([4]; first compound 0.253 µM) was 1.05. It also gave a relative viability ([4]; first compound 0.8 µM) of 1.01, a relative viability ([4]; first compound 2.53 µM) of 1.11 and a relative viability ([4]; first compound 8 µM) of 0.953.
NCI-H2087 showed a relative viability ([1]; first compound 0.01 µM) of 1.14, a relative viability ([1]; first compound 0.03162 µM) of 0.938 and a relative viability ([1]; first compound 0.3162 µM) of 0.732. The relative viability ([1]; first compound 1 µM) was 0.108, the relative viability ([2]; first compound 0.08 µM) was 0.244 and the relative viability ([2]; first compound 0.253 µM) was 0.259. For the same cell line, the relative viability ([2]; first compound 0.8 µM) was 0.222, the relative viability ([2]; first compound 2.53 µM) was 0.131 and the relative viability ([2]; first compound 8 µM) was 0.24. For the same cell line, the relative viability ([3]; first compound 0.01 µM) was 0.178, the relative viability ([3]; first compound 0.03162 µM) was 0.16 and the relative viability ([3]; first compound 0.3162 µM) was 0.141. It also gave a relative viability ([3]; first compound 1 µM) of 0.116, a relative viability ([4]; first compound 0.08 µM) of 0.888 and a relative viability ([4]; first compound 0.253 µM) of 0.902. It also gave a relative viability ([4]; first compound 0.8 µM) of 0.856, a relative viability ([4]; first compound 2.53 µM) of 0.669 and a relative viability ([4]; first compound 8 µM) of 0.904.
Cell Line NCI-H2126 has a relative viability ([1]; first compound 0.01 µM) of 0.658, a relative viability ([1]; first compound 0.03162 µM) of 0.626 and a relative viability ([1]; first compound 0.3162 µM) of 0.497. For the same cell line, the relative viability ([1]; first compound 1 µM) was 0.357, the relative viability ([2]; first compound 0.08 µM) was 0.577 and the relative viability ([2]; first compound 0.253 µM) was 0.567. For the same cell line, the relative viability ([2]; first compound 0.8 µM) was 0.599, the relative viability ([2]; first compound 2.53 µM) was 0.612 and the relative viability ([2]; first compound 8 µM) was 0.609. It also gave a relative viability ([3]; first compound 0.01 µM) of 1.02, a relative viability ([3]; first compound 0.03162 µM) of 0.916 and a relative viability ([3]; first compound 0.3162 µM) of 0.805. For the same cell line, the relative viability ([3]; first compound 1 µM) was 0.297, the relative viability ([4]; first compound 0.08 µM) was 1.14 and the relative viability ([4]; first compound 0.253 µM) was 1.12. For the same cell line, the relative viability ([4]; first compound 0.8 µM) was 1.11, the relative viability ([4]; first compound 2.53 µM) was 1.08 and the relative viability ([4]; first compound 8 µM) was 1.11.
Work on NCI-H2347 yielded a relative viability ([1]; first compound 0.01 µM) of 0.375, a relative viability ([1]; first compound 0.03162 µM) of 0.32 and a relative viability ([1]; first compound 0.3162 µM) of 0.356. It also gave a relative viability ([1]; first compound 1 µM) of 0.0926, a relative viability ([2]; first compound 0.08 µM) of 0.586 and a relative viability ([2]; first compound 0.253 µM) of 0.61. The relative viability ([2]; first compound 0.8 µM) was 0.602, the relative viability ([2]; first compound 2.53 µM) was 0.629 and the relative viability ([2]; first compound 8 µM) was 0.614. The relative viability ([3]; first compound 0.01 µM) was 0.83, the relative viability ([3]; first compound 0.03162 µM) was 0.268 and the relative viability ([3]; first compound 0.3162 µM) was 0.392. It also gave a relative viability ([3]; first compound 1 µM) of 0.39, a relative viability ([4]; first compound 0.08 µM) of 1.23 and a relative viability ([4]; first compound 0.253 µM) of 0.962. For the same cell line, the relative viability ([4]; first compound 0.8 µM) was 0.982, the relative viability ([4]; first compound 2.53 µM) was 0.98 and the relative viability ([4]; first compound 8 µM) was 0.955.
In the case of NCI-H2405, the relative viability ([1]; first compound 0.01 µM) is reported as 0.203, the relative viability ([1]; first compound 0.03162 µM) is reported as 0.216 and the relative viability ([1]; first compound 0.3162 µM) is reported as 0.199. It also gave a relative viability ([1]; first compound 1 µM) of 0.219, a relative viability ([2]; first compound 0.08 µM) of 0.744 and a relative viability ([2]; first compound 0.253 µM) of 0.685. For the same cell line, the relative viability ([2]; first compound 0.8 µM) was 0.7, the relative viability ([2]; first compound 2.53 µM) was 0.828 and the relative viability ([2]; first compound 8 µM) was 0.742. For the same cell line, the relative viability ([3]; first compound 0.01 µM) was 0.713, the relative viability ([3]; first compound 0.03162 µM) was 0.718 and the relative viability ([3]; first compound 0.3162 µM) was 0.592. It also gave a relative viability ([3]; first compound 1 µM) of 0.281, a relative viability ([4]; first compound 0.08 µM) of 1.04 and a relative viability ([4]; first compound 0.253 µM) of 0.952. For the same cell line, the relative viability ([4]; first compound 0.8 µM) was 0.979, the relative viability ([4]; first compound 2.53 µM) was 0.935 and the relative viability ([4]; first compound 8 µM) was 0.4.

From the supplement of paper PMC10307832
